Test results published in patent US10501460B2, “Heterocyclic compounds and uses thereof” (Plexxikon Inc., priority 2013, dated 2019).

Assays:
[1] = test system: bromodomain; assay: Bromodomain cell assays of Example 40 (at least one of them); type: cell-based; conditions: in at least one of the bromodomain cell assays described in Example 40
From the text: (§1) Published bromodomain inhibitors JQ1 and iBET 151 have shown activity in variety of cancer cells such leukemia and lymphoma, multiple myeloma cells, NUT midline carcinoma and glioblastoma cells (Dawson M A et al. 2011; Delmore J E 2011; Chen Z et al. 2013; Filippakopoulos P et al. 2010; Mertz J A et al. 2011; Ott C J et al. 2012). In this study, we test compounds in different cancer cell lines. MV-4-11 and MOLM-13 are AML cell lines harboring a MLL-AF4 and MLL-AF9 translocation, respectively. MM.1S is a multiple myeloma cell line. SK-N-AS, IMR-32 and SK-N-BE(2) are neuroblastoma cell lines. IMR-32 and SK-N-BE(2) cell lines harbor MYCN amplifications. MV-4-11, MM.1S, IMR-32, SK-N-AS and SK-N-BE(2) were obtained from ATCC (IL, USA) and MOLM-13 were purchased from DSMZ (Braunschweig, German). Cells are cultured as recommended by their sources. For growth inhibition studies 3000 cells are seeded in wells of a 96-well plate in 75 μL of culture media. After several hours, growth media containing compounds of formula (I) are added to the wells. Compound at a maximal concentration of 5 mM was serially diluted 1:3 for a total of 8 point titration with DMSO as a control. A 1 μL aliquot of each dilution point is added to 249 μL growth media and 75 μL is added to each well containing cells, providing 10 μM compound at the maximum concentration point. The final concentration of DMSO in all wells is 0.2%. Cells are incubated for 72 hours, and 25 μL of CellTiter Glo Reagent (Promega Ga., USA) is added to each well. Plates are shaken for approximately 10 minutes and chemiluminescent signal is read on Tecan microplate reader. The measured luminescence correlates directly with cell number.
(§2) All data is normalized to the mean of eight DMSO high control wells on each plate. A four parameter curve fit of the following formula was then applied: Y=a+(b−a)/(1+(x/c)^d) Where ‘a’ is the minimum, ‘b’ is the maximum, ‘c’ is the pIC50 and ‘d’ is the Hill slope. […] Myc Reporter Assay
In MV-4-11 cells, BRD2, BRD3 and BRD4 bind to the promoter region of MYC and regulate its transcription (Dawson M A et al. 2011). The literature bromodomain inhibitor iBET 151 could disrupt BRD4 recruitment to the MYC promoter and subsequently downregulate c-myc transcription (Dawson M A et al. 2011). Myc protein is a transcription factor that heterodimerizes with an obligatory partner Max and regulates the transcription of genes important for cell proliferation, differentiation, and apoptosis. This Myc reporter assay is used to monitor the inhibitory effect of compound of formula (I) on Myc dependent gene expression. Effective compounds could have potential therapeutic effects in Myc-driven tumors.
The MV-4-11 Myc reporter cell line is established by infecting MV-4-11 with VSV-g pseudotyped lentivirus expressing the firefly luciferase gene under the control of a minimal (m) CMV promoter and tandem repeats of the E-box transcriptional response element (TRE) (Qiagen IL, USA) and selecting cells in […] Puromycin.
The MV-4-11 Myc reporter cell line is maintained in Iscove's Modified Dulbecco's Medium containing 10% FBS, 1% PenStep and 2.5 μg/ml Puromycin. Cells are incubated at 37° C. in a humidified atmosphere with 5% CO2. 25,000 cells are seeded in 96-well plate in 50 μL of culture media. After several hours, growth media containing 2× compounds are added to the wells. Compound at a maximal concentration of 5 mM is serially diluted 1:3 for a total of 8 point titration. A 1 μl aliquot of each dilution point is added to 249 μl growth media and 50 μl is added to each well containing cells, providing 10 μM compound at the maximum concentration point. DMSO treated cells serve as a high control and 10 μM JQ1 treated cells serve as a low control. Cells are incubated for a further 24 hours and 25 μL of CellTiter-Fluo Reagent (Promega Ga., USA) is added to each well. Plates are shaken for approximately 2 minutes and incubated at 37° C. for 0.5 hour. […]

[2] = test system: MV-4-11; assay: Oncology cell growth assay MV-4-11 (CellTiter Glo, 72 hours); type: cell-based; conditions: Homo sapiens, MV4-11, 72 h; MV-4-11 cell growth inhibitory activity, 3d
From the text: as §1, §2
The following table provides data indicating the BRD4 biochemical inhibitory activity and MV-4-11 cell growth inhibitory activity for exemplary compounds as described herein.

Compound	IC50 [1]	IC50 [2]
CCc1[nH]c2ncc(-c3c(C)noc3C)cc2c1CC1CCC(F)(F)CC1 [P-0051, 4-[3-[(4,4-difluorocyclohexyl)methyl]-2-ethyl-1H-pyrrolo[2,3-b]pyridin-5-yl]-3,5-dimethyl-isoxazole]	< 10 µM	–
Cc1noc(C)c1-c1cnc2ccn(S(=O)(=O)N3CCCCC3)c2c1 [P-0067, 3,5-dimethyl-4-[1-(1-piperidylsulfonyl)pyrrolo [3,2-b]pyridin-6-yl] isoxazole]	< 10 µM	–
Cc1noc(C)c1-c1cnc2c(c1)c(C(O)C1CCC(F)(F)CC1)cn2C (centres unmarked) [P-0101, (4,4-difluorocyclohexyl)-[5-(3,5-dimethylisoxazol-4-yl)-1-methyl-pyrrolo[2,3-b]pyridin-3-yl]methanol]	< 10 µM	–
CCn1cc(-c2cn(S(=O)(=O)c3ccccc3)c3cc(-c4c(C)noc4C)cnc23)cn1 [P-0124, 4-[1-(benzenesulfonyl)-3-(1-ethylpyrazol-4-yl)pyrrolo[3,2-b]pyridin-6-yl]-3,5-dimethyl-isoxazole]	–	≤ 1 µM
Cc1noc(C)c1-c1cnc2c(-c3cnn(C(F)F)c3)cn(S(=O)(=O)C3CCCC3)c2c1 [P-0133, 4-[1-cyclopentylsulfonyl-3-[1-(difluoromethyl)pyrazol-4-yl]pyrrolo [3,2-b]pyridin-6-yl]-3,5-dimethyl-isoxazole]	–	≤ 1 µM
Cc1noc(C)c1-c1cnc2c(C#CCO)cn(S(=O)(=O)c3ccccc3)c2c1 [P-0155, 3-[1-(benzenesulfonyl)-6-(3,5-dimethylisoxazol-4-yl)pyrrolo[3,2-b]pyridin-3-yl]prop-2-yn-1-ol]	–	≤ 1 µM
Cc1noc(C)c1-c1cnc2c(I)c(C(F)(F)F)[nH]c2c1 [P-0225, 4-[3-iodo-2-(trifluoromethyl)-1H-pyrrolo[3,2-b]pyridin-6-yl]-3,5-dimethyl-isoxazole]	< 10 µM	–
Cc1noc(C)c1-c1ccc2c(-c3cnn(C)c3)cn(Cc3ccccc3F)c2c1 [P-0226, 4-[1-[(2-fluorophenyl)methyl]-3-(1-methylpyrazol-4-yl)indol-6-yl]-3,5-dimethyl-isoxazole]	< 10 µM	–
Cc1noc(C)c1-c1ccc2c(-c3cnn(C)c3)cn(Cc3ccccc3Cl)c2c1 [P-0227, 4-[1-[(2-chlorophenyl)methyl]-3-(1-methylpyrazol-4-yl)indol-6-yl]-3,5-dimethyl-isoxazole]	< 10 µM	–
Cc1noc(C)c1-c1ccc2c(-c3cnn(C)c3)cn(Cc3ccccc3C(F)(F)F)c2c1 [P-0228, 3,5-dimethyl-4-[3-(1-methylpyrazol-4-yl)-1-[[2-(trifluoromethyl)phenyl]methyl]indol-6-yl]isoxazole]	< 10 µM	–
Cc1noc(C)c1-c1ccc2c(-c3cnn(C)c3)cn(Cc3c(F)cccc3F)c2c1 [P-0229, 4-[1-[(2,6-difluorophenyl)methyl]-3-(1-methylpyrazol-4-yl)indol-6-yl]-3,5-dimethyl-isoxazole]	< 10 µM	–
Cc1noc(C)c1-c1ccc2c(-c3cnn(C)c3)cn(C(C)c3ccccc3)c2c1 (centres unmarked) [P-0232, 3,5-dimethyl-4-[3-(1-methylpyrazol-4-yl)-1-(1-phenylethyl)indol-6-yl]isoxazole]	< 10 µM	–
[2H]C([2H])(F)C(c1ccccc1)n1cc(-c2cnn(C)c2)c2ncc(-c3c(C)noc3C)cc21 (centres unmarked) [P-0233, 4-[1-(2,2-dideuterio-2-fluoro-1-phenyl-ethyl)-3-(1-methylpyrazol-4-yl)pyrrolo[3,2-b]pyridin-6-yl]-3,5-dimethyl-isoxazole]	< 10 µM	–
Cc1noc(C)c1-c1cnc2c(I)cn(CC3(F)CCCCC3)c2c1 [P-0234, 4-[1-[(1-fluorocyclohexyl)methyl]-3-iodo-pyrrolo[3,2-b]pyridin-6-yl]-3,5-dimethyl-isoxazole]	< 10 µM	–
Cc1noc(C)c1-c1cnc2c(-c3cnn(C(F)F)c3)cn(CC3(F)CCCCC3)c2c1 [P-0235, 4-[3-[1-(difluoromethyl)pyrazol-4-yl]-1-[(1-fluorocyclohexyl)methyl]pyrrolo[3,2-b]pyridin-6-yl]-3,5-dimethyl-isoxazole]	< 10 µM	–
Cc1noc(C)c1-c1cnc2c(-c3cnn(C4CC4)c3)cn(CC3(F)CCCCC3)c2c1 [P-0236, 4-[3-(1-cyclopropylpyrazol-4-yl)-1-[(1-fluorocyclohexyl)methyl]pyrrolo[3,2-b]pyridin-6-yl]-3,5-dimethyl-isoxazole]	< 10 µM	–
Cc1noc(C)c1-c1cnc2c(-c3cnn(CC(F)(F)F)c3)cn(CC3(F)CCCCC3)c2c1 [P-0237, 4-[1-[(1-fluorocyclohexyl)methyl]-3-[1-(2,2,2-trifluoroethyl)pyrazol-4-yl]pyrrolo[3,2-b]pyridin-6-yl]-3,5-dimethyl-isoxazole]	< 10 µM	–
COCCn1cc(-c2cn(CC3(F)CCCCC3)c3cc(-c4c(C)noc4C)cnc23)cn1 [P-0238, 4-[1-[(1-fluorocyclohexyl)methyl]-3-[1-(2-methoxyethyl)pyrazol-4-yl]pyrrolo[3,2-b]pyridin-6-yl]-3,5-dimethyl-isoxazole]	< 10 µM	–
Cc1noc(C)c1-c1cnc2c(-c3cn[nH]c3)cn(CC3(F)CCCCC3)c2c1 [P-0239, 4-[1-[(1-fluorocyclohexyl)methyl]-3-(1H-pyrazol-4-yl)pyrrolo[3,2-b]pyridin-6-yl]-3,5-dimethyl-isoxazole]	< 10 µM	–
Cc1noc(C)c1-c1cnc2c(I)cn(CC3(F)CCC4(CC3)OCCO4)c2c1 [P-0240, 4-[1-[(8-fluoro-1,4-dioxaspiro[4.5]decan-8-yl)methyl]-3-iodo-pyrrolo[3,2-b]pyridin-6-yl]-3,5-dimethyl-isoxazole]	< 10 µM	–
Cc1noc(C)c1-c1cnc2c(-c3cnn(C(F)F)c3)cn(CC3(F)CCC4(CC3)OCCO4)c2c1 [P-0241, 4-[3-[1-(difluoromethyl)pyrazol-4-yl]-1-[(8-fluoro-1,4-dioxaspiro[4.5]decan-8-yl)methyl]pyrrolo[3,2-b]pyridin-6-yl]-3,5-dimethyl-isoxazole]	< 10 µM	–
Cc1noc(C)c1-c1cnc2c(-c3cnn(C(F)F)c3)cn(CC3(F)CCC(=O)CC3)c2c1 [P-0242, 4-[[3-[1-(difluoromethyl)pyrazol-4-yl]-6-(3,5-dimethylisoxazol-4-yl)pyrrolo[3,2-b]pyridin-1-yl]methyl]-4-fluoro-cyclohexanone]	< 10 µM	–
Cc1noc(C)c1-c1cnc2c(-c3cnn(C(F)F)c3)cn(CC3(F)CCC(F)(F)CC3)c2c1 [P-0243, 4-[3-[1-(difluoromethyl)pyrazol-4-yl]-1-[(1,4,4-trifluorocyclohexyl)methyl]pyrrolo[3,2-b]pyridin-6-yl]-3,5-dimethyl-isoxazole]	< 10 µM	–
Cc1noc(C)c1-c1cnc2c(-c3cnn(C(F)F)c3)cn(CC3(F)CC=C(F)CC3)c2c1 (centres unmarked) [P-0244, 4-[1-[(1,4-difluorocyclohex-3-en-1-yl)methyl]-3-[1-(difluoromethyl)pyrazol-4-yl]pyrrolo[3,2-b]pyridin-6-yl]-3,5-dimethyl-isoxazole]	< 10 µM	–
Cc1noc(C)c1-c1cnc2c(I)c(C(F)(F)F)n(C(C)c3ccccc3)c2c1 (centres unmarked) [P-0245, 4-[3-iodo-1-(1-phenylethyl)-2-(trifluoromethyl)pyrrolo[3,2-b]pyridin-6-yl]-3,5-dimethyl-isoxazole]	< 10 µM	–
Cc1noc(C)c1-c1cnc2[nH]ccc2c1 [P-0246, 3,5-dimethyl-4-(1H-pyrrolo[2,3-b]pyridin-5-yl)isoxazole]	< 10 µM	–
